Test results: PMC8749431 (mBio, 2022)

How the values were obtained:
[1] = tested on: pseudotyped VSVs harboring SARS-CoV-2 S (SARS2-Spp); assay: microbe, parasite or virus in culture; type: cell-based
[2] = tested on: rVSV-SARS-CoV-2-S-GFP; type: cell-based
[3] = Severe acute respiratory syndrome coronavirus 2, 24 h
[4] = Severe acute respiratory syndrome coronavirus 2, Huh-7, 24 h
[5] = Severe acute respiratory syndrome coronavirus 2, MA104
[6] = Severe acute respiratory syndrome coronavirus 2, MA104, 24 h
[7] = Severe acute respiratory syndrome coronavirus 2

Row | SMILES | EC50 [1, 3] [µM] | EC50 [1, 4] [µM] | EC90 [1, 5] [µM] | EC50 [1, 6] [µM] | EC50 [1, 7] [µM] | inhibition of SARS2-Spp entry [1] | EC90 [1, 7] [µM] | EC50 (GFP signals) [2] | inhibition of rVSV-SARS-CoV-2-S-GFP infection [2]
1 | CN1CCN([C@@H](c2ccccc2)c2ccc(Cl)cc2)CC1 [(S)-CCZ, (S)-chlorcyclizine] | 11.4 | 9.2 | 11.1 | 4.09 |  |  |  |  | 
2 | O=C(CCCCC1SCC2NC(=O)NC21)NCCOCCOCCN1CCN(C(c2ccc(Cl)cc2)c2ccc(C3(C(F)(F)F)N=N3)cc2)CC1 (stereo not drawn) [CCZ-DB] |  |  |  |  | 12.9 |  |  |  | 
3 | CN(C)C(=O)COC(=O)Cc1ccc(OC(=O)c2ccc(NC(=N)N)cc2)cc1 [Camostat, camostat] | > 100 | > 100 |  | > 100 |  |  |  |  | 
4 | CCN(CC)CCCC(C)Nc1ccnc2cc(Cl)ccc12 (stereo not drawn) [Chloroquine, chloroquine] | 2.07 | 4.38 | 32.3 | 7.65 |  | inhibited | 30.2 | single-digit micromolar range | inhibited
5 | O=C(CCCC[C@@H]1SC[C@@H]2NC(=O)N[C@@H]21)NCc1ccc(C2(C(F)(F)F)N=N2)cc1 [DB-Ctrl] |  |  |  |  | > 100 |  |  |  | 
6 | CCN1CCN(C(c2ccc(Cl)cc2)c2ccc(Cl)cc2)CC1 [Dichlorcyclizine, dichlorcyclizine] | 2.34 | 3.05 |  | 4.53 |  |  |  | single-digit micromolar range | inhibited
7 | CCOC(=O)[C@H]1O[C@@H]1C(=O)N[C@@H](CC(C)C)C(=O)NCCC(C)C [E-64d] |  |  |  |  |  | inhibited |  |  | 
8 | Cc1cc(-c2nc(CN3CCC(C(=O)NCCCN4C[C@H](C)C[C@H](C)C4)CC3)co2)ccc1F [Fluoxazolevir, fluoxazolevir] | 6.82 | 2.64 | 18.5 | 3.86 |  |  | 13.6 | single-digit micromolar range | inhibited
